{"source": "ChEMBL document CHEMBL4177696", "about": "“Identification of a diverse synthetic abietane diterpenoid library and insight into the structure-activity relationships for antibacterial activity” (Bioorg Med Chem Lett, 2017)", "assay_type_in_all_cases": "functional", "key": {"[1]": {"tested_on": "Pseudomonas fluorescens", "test": "Antibacterial activity against Pseudomonas fluorescens measured after 24 hrs"}, "[2]": {"tested_on": "Escherichia coli", "test": "Antibacterial activity against Escherichia coli measured after 24 hrs"}, "[3]": {"tested_on": "Staphylococcus aureus", "test": "Antibacterial activity against Staphylococcus aureus measured after 24 hrs"}, "[4]": {"tested_on": "Bacillus subtilis", "test": "Antibacterial activity against Bacillus subtilis measured after 24 hrs"}}}
{"molecule": "COC(=O)[C@]1(C)CCC[C@]2(C)c3ccc(C(C)C)c(O)c3CC[C@@H]12", "values": [{"measurement": "MIC", "setting": "[1]", "value": 25, "unit": "µg/mL"}, {"measurement": "MIC", "setting": "[2]", "value": 50, "unit": "µg/mL"}, {"measurement": "MIC", "setting": "[3]", "value": 50, "unit": "µg/mL"}, {"measurement": "MIC", "setting": "[4]", "value": 75, "unit": "µg/mL"}]}
{"molecule": "COc1c(C(C)C)ccc2c1CC[C@H]1[C@@H](O)CCC[C@]21C", "values": [{"measurement": "MIC", "setting": "[1]", "value": 100, "unit": "µg/mL"}, {"measurement": "MIC", "setting": "[2]", "value": 75, "unit": "µg/mL"}, {"measurement": "MIC", "setting": "[3]", "value": 100, "unit": "µg/mL"}, {"measurement": "MIC", "setting": "[4]", "value": 100, "unit": "µg/mL"}]}
{"molecule": "COc1c(C(C)C)ccc2c1CC[C@H]1C(=O)CCC[C@]21C", "values": [{"measurement": "MIC", "setting": "[1]", "value": 100, "unit": "µg/mL"}, {"measurement": "MIC", "setting": "[2]", "value": 75, "unit": "µg/mL"}, {"measurement": "MIC", "setting": "[3]", "value": 75, "unit": "µg/mL"}, {"measurement": "MIC", "setting": "[4]", "value": 100, "unit": "µg/mL"}]}
{"molecule": "C[C@]12CC=C3C(=O)OC[C@@H]3[C@@H]1CCc1ccccc12", "values": [{"measurement": "MIC", "setting": "[1]", "value": 1.6, "unit": "µg/mL"}, {"measurement": "MIC", "setting": "[2]", "value": 0.8, "unit": "µg/mL"}, {"measurement": "MIC", "setting": "[3]", "value": 50, "unit": "µg/mL"}, {"measurement": "MIC", "setting": "[4]", "value": 25, "unit": "µg/mL"}]}
{"molecule": "COc1cccc2c1CC[C@H]1[C@@H](CO)[C@H](O[Si](C)(C)C(C)(C)C)CC[C@]21C", "values": [{"measurement": "MIC", "setting": "[1]", "value": 75, "unit": "µg/mL"}, {"measurement": "MIC", "setting": "[2]", "value": 100, "unit": "µg/mL"}, {"measurement": "MIC", "setting": "[3]", "value": 100, "unit": "µg/mL"}, {"measurement": "MIC", "setting": "[4]", "value": 100, "unit": "µg/mL"}]}
{"molecule": "COc1c(C(C)C)ccc2c1CC[C@H]1C(=O)CCC[C@]21CO[N+](=O)[O-]", "values": [{"measurement": "MIC", "setting": "[1]", "value": 75, "unit": "µg/mL"}, {"measurement": "MIC", "setting": "[2]", "value": 50, "unit": "µg/mL"}, {"measurement": "MIC", "setting": "[3]", "value": 50, "unit": "µg/mL"}, {"measurement": "MIC", "setting": "[4]", "value": 25, "unit": "µg/mL"}]}
{"molecule": "COC(=O)[C@]1(C)CCC[C@@]2(C)[C@H]1CC=C1C(=O)[C@@](O)(C(C)C)CC[C@@H]12", "values": [{"measurement": "MIC", "setting": "[1]", "value": 100, "unit": "µg/mL"}, {"measurement": "MIC", "setting": "[2]", "value": 75, "unit": "µg/mL"}, {"measurement": "MIC", "setting": "[3]", "value": 75, "unit": "µg/mL"}, {"measurement": "MIC", "setting": "[4]", "value": 100, "unit": "µg/mL"}]}
{"molecule": "COC(=O)[C@]1(C)CCC[C@]2(C)c3ccc(C(C)C)c(N)c3CC[C@@H]12", "values": [{"measurement": "MIC", "setting": "[1]", "value": 50, "unit": "µg/mL"}, {"measurement": "MIC", "setting": "[2]", "value": 50, "unit": "µg/mL"}, {"measurement": "MIC", "setting": "[3]", "value": 25, "unit": "µg/mL"}, {"measurement": "MIC", "setting": "[4]", "value": 50, "unit": "µg/mL"}]}
{"molecule": "C=C1CCC[C@]2(C)c3ccc(C(C)C)c(OC)c3CC[C@@H]12", "values": [{"measurement": "MIC", "setting": "[1]", "value": 100, "unit": "µg/mL"}, {"measurement": "MIC", "setting": "[2]", "value": 100, "unit": "µg/mL"}, {"measurement": "MIC", "setting": "[3]", "value": 100, "unit": "µg/mL"}, {"measurement": "MIC", "setting": "[4]", "value": 75, "unit": "µg/mL"}]}
{"molecule": "COc1ccc(COC[C@H]2[C@H](O)CC[C@]3(C)c4cccc(OC)c4CC[C@@H]23)cc1", "values": [{"measurement": "MIC", "setting": "[1]", "value": 25, "unit": "µg/mL"}, {"measurement": "MIC", "setting": "[2]", "value": 25, "unit": "µg/mL"}, {"measurement": "MIC", "setting": "[3]", "value": 25, "unit": "µg/mL"}, {"measurement": "MIC", "setting": "[4]", "value": 50, "unit": "µg/mL"}]}
{"molecule": "COC(=O)[C@]1(C)CCC[C@@]2(C)[C@H]1CC=C1[C@@H]2CC[C@](O)(C(C)C)[C@H]1O", "values": [{"measurement": "MIC", "setting": "[1]", "value": 75, "unit": "µg/mL"}, {"measurement": "MIC", "setting": "[2]", "value": 100, "unit": "µg/mL"}, {"measurement": "MIC", "setting": "[3]", "value": 75, "unit": "µg/mL"}, {"measurement": "MIC", "setting": "[4]", "value": 75, "unit": "µg/mL"}]}
{"molecule": "COC(=O)[C@]1(C)CCC[C@]2(C)c3ccc(C(C)C)c(OC)c3CC[C@@H]12", "values": [{"measurement": "MIC", "setting": "[1]", "value": 75, "unit": "µg/mL"}, {"measurement": "MIC", "setting": "[2]", "value": 100, "unit": "µg/mL"}, {"measurement": "MIC", "setting": "[3]", "value": 75, "unit": "µg/mL"}, {"measurement": "MIC", "setting": "[4]", "value": 75, "unit": "µg/mL"}]}
{"molecule": "COc1c(C(C)C)ccc2c1CC[C@@]1(O)C3=C(CC[C@]21C)C(=O)OC3", "values": [{"measurement": "MIC", "setting": "[1]", "value": 100, "unit": "µg/mL"}, {"measurement": "MIC", "setting": "[2]", "value": 100, "unit": "µg/mL"}, {"measurement": "MIC", "setting": "[3]", "value": 100, "unit": "µg/mL"}, {"measurement": "MIC", "setting": "[4]", "value": 100, "unit": "µg/mL"}]}
{"molecule": "COc1c(C(C)C)ccc2c1CC[C@H]1C3=C(CC[C@]21CO)C(=O)OC3", "values": [{"measurement": "MIC", "setting": "[1]", "value": 75, "unit": "µg/mL"}, {"measurement": "MIC", "setting": "[2]", "value": 50, "unit": "µg/mL"}, {"measurement": "MIC", "setting": "[3]", "value": 50, "unit": "µg/mL"}, {"measurement": "MIC", "setting": "[4]", "value": 75, "unit": "µg/mL"}]}
{"molecule": "C=C1[C@H](O)CC[C@]2(C)c3ccc(C(C)C)c(OC)c3CC[C@@H]12", "values": [{"measurement": "MIC", "setting": "[1]", "value": 100, "unit": "µg/mL"}, {"measurement": "MIC", "setting": "[2]", "value": 100, "unit": "µg/mL"}, {"measurement": "MIC", "setting": "[3]", "value": 100, "unit": "µg/mL"}, {"measurement": "MIC", "setting": "[4]", "value": 100, "unit": "µg/mL"}]}
{"molecule": "COc1cccc2c1CC[C@H]1C3=C(CC[C@]21C)C(=O)OC3", "values": [{"measurement": "MIC", "setting": "[1]", "value": 100, "unit": "µg/mL"}, {"measurement": "MIC", "setting": "[2]", "value": 100, "unit": "µg/mL"}, {"measurement": "MIC", "setting": "[3]", "value": 100, "unit": "µg/mL"}, {"measurement": "MIC", "setting": "[4]", "value": 100, "unit": "µg/mL"}]}
{"molecule": "COc1c(C(C)C)ccc2c1CC[C@H]1c3cocc3CC[C@]21C", "values": [{"measurement": "MIC", "setting": "[1]", "value": 100, "unit": "µg/mL"}, {"measurement": "MIC", "setting": "[2]", "value": 100, "unit": "µg/mL"}, {"measurement": "MIC", "setting": "[3]", "value": 50, "unit": "µg/mL"}, {"measurement": "MIC", "setting": "[4]", "value": 100, "unit": "µg/mL"}]}
{"molecule": "CC(C)(C)[Si](C)(C)O[C@@H]1CC[C@]2(C)c3ccccc3CC[C@H]2[C@H]1CO", "values": [{"measurement": "MIC", "setting": "[1]", "value": 75, "unit": "µg/mL"}, {"measurement": "MIC", "setting": "[2]", "value": 100, "unit": "µg/mL"}, {"measurement": "MIC", "setting": "[3]", "value": 100, "unit": "µg/mL"}, {"measurement": "MIC", "setting": "[4]", "value": 75, "unit": "µg/mL"}]}
{"molecule": "COc1c(C(C)C)ccc2c1CC[C@H]1[C@@H](O)CCC[C@]21CO[N+](=O)[O-]", "values": [{"measurement": "MIC", "setting": "[1]", "value": 25, "unit": "µg/mL"}, {"measurement": "MIC", "setting": "[2]", "value": 100, "unit": "µg/mL"}, {"measurement": "MIC", "setting": "[3]", "value": 100, "unit": "µg/mL"}, {"measurement": "MIC", "setting": "[4]", "value": 75, "unit": "µg/mL"}]}
{"molecule": "COC(=O)C1=C[C@@H]2CCc3c(ccc(C(C)C)c3OC)[C@@]2(C)CC1", "values": [{"measurement": "MIC", "setting": "[1]", "value": 25, "unit": "µg/mL"}, {"measurement": "MIC", "setting": "[2]", "value": 75, "unit": "µg/mL"}, {"measurement": "MIC", "setting": "[3]", "value": 50, "unit": "µg/mL"}, {"measurement": "MIC", "setting": "[4]", "value": 25, "unit": "µg/mL"}]}
{"molecule": "COC(=O)[C@]1(C)CCC[C@]2(C)c3ccc(C(C)C)c(OC)c3C(=O)C[C@@H]12", "values": [{"measurement": "MIC", "setting": "[1]", "value": 50, "unit": "µg/mL"}, {"measurement": "MIC", "setting": "[2]", "value": 25, "unit": "µg/mL"}, {"measurement": "MIC", "setting": "[3]", "value": 50, "unit": "µg/mL"}, {"measurement": "MIC", "setting": "[4]", "value": 50, "unit": "µg/mL"}]}
{"molecule": "COc1c(C(C)C)ccc2c1CC[C@H]1[C@@H](CO)[C@H](O)CC[C@]21C", "values": [{"measurement": "MIC", "setting": "[1]", "value": 50, "unit": "µg/mL"}, {"measurement": "MIC", "setting": "[2]", "value": 75, "unit": "µg/mL"}, {"measurement": "MIC", "setting": "[3]", "value": 75, "unit": "µg/mL"}, {"measurement": "MIC", "setting": "[4]", "value": 100, "unit": "µg/mL"}]}
{"molecule": "COc1c(C(C)C)ccc2c1CC[C@H]1C3=C(CC[C@]21C)C(=O)OC3", "values": [{"measurement": "MIC", "setting": "[1]", "value": 100, "unit": "µg/mL"}, {"measurement": "MIC", "setting": "[2]", "value": 100, "unit": "µg/mL"}, {"measurement": "MIC", "setting": "[3]", "value": 100, "unit": "µg/mL"}, {"measurement": "MIC", "setting": "[4]", "value": 100, "unit": "µg/mL"}]}
{"molecule": "C=C1[C@H](O[Si](C)(C)C(C)(C)C)CC[C@]2(C)c3ccccc3CC[C@@H]12", "values": [{"measurement": "MIC", "setting": "[1]", "value": 75, "unit": "µg/mL"}, {"measurement": "MIC", "setting": "[2]", "value": 75, "unit": "µg/mL"}, {"measurement": "MIC", "setting": "[3]", "value": 100, "unit": "µg/mL"}, {"measurement": "MIC", "setting": "[4]", "value": 100, "unit": "µg/mL"}]}
{"molecule": "C[C@]12CCC3=C(COC3=O)[C@@H]1CCc1ccccc12", "values": [{"measurement": "MIC", "setting": "[1]", "value": 75, "unit": "µg/mL"}, {"measurement": "MIC", "setting": "[2]", "value": 100, "unit": "µg/mL"}, {"measurement": "MIC", "setting": "[3]", "value": 100, "unit": "µg/mL"}, {"measurement": "MIC", "setting": "[4]", "value": 75, "unit": "µg/mL"}]}
